Reference: US11708348B2, “Protease inhibitors for treatment of coronavirus infections” (The Scripps Research Institute, priority 2021, dated 2023)
Where a name gives a salt, the structure may show the parent alone.

Each compound was assayed on SARS-CoV-2 strain USA-WA1/2020 (assay: microbe, parasite or virus in culture). Settings: Severe acute respiratory syndrome coronavirus 2, HeLa-ACE2, 24 h, HeLa-ACE2 cells, SARS-CoV-2 infection, 24 h; class symbols; read-out: EC50, uM (Hela).
Type: cell-based
With `O=C(Nc1ccccc1F)C(=O)N[C@@H](CC1CC1)C(=O)N[C@@H](C[C@@H]1CCNC1=O)C(=O)COc1c(F)c(F)cc(F)c1F` [Compound 109, N1-((S)-3-cyclopropyl-1-oxo-1-(((S)-3-oxo-1-((S)-2-oxopyrrolidin-3-yl)-4-(2,3,5,6-tetrafluorophenoxy)butan-2-yl)amino)propan-2-yl)-N2-(2-fluorophenyl)oxalamide] the EC50 was under 0.05 µM. `CC(C)C[C@H](NC(=O)C(=O)NC1(C)CC1)C(=O)N[C@@H](C[C@@H]1CCNC1=O)C(=O)COC(F)(F)F` [Compound 217, N1-((S)-4-methyl-1-oxo-1-(((S)-3-oxo-1-((S)-2-oxopyrrolidin-3-yl)-4-(trifluoromethoxy)butan-2-yl)amino)pentan-2-yl)-N2-(1-methylcyclopropyl)-oxalamide] was tested, and the EC50 was under 0.05 µM. `O=C1NCC[C@H]1C[C@H](NC(=O)[C@@H]1CC2(CC2)CN1C(=O)[C@@H](O)C(F)(F)F)C(=O)COC(F)(F)F` [Compound 387, (S)-N-((S)-3-oxo-1-((S)-2-oxopyrrolidin-3-yl)-4-(trifluoromethoxy)butan-2-yl)-5-((R)-3,3,3-trifluoro-2-hydroxypropanoyl)-5-azaspiro[2.4]-heptane-6-carboxamide] gave an EC50 of 0.05 to 0.2 µM. Work on `CC(C)C[C@H](NC(=O)C(=O)NC1(C(F)(F)F)CC1)C(=O)N[C@@H](C[C@@H]1CCNC1=O)C(=O)COC(F)(F)F` [Compound 237, N1-((S)-4-methyl-1-oxo-1-(((S)-3-oxo-1-((S)-2-oxopyrrolidin-3-yl)-4-(trifluoromethoxy)butan-2-yl)amino)pentan-2-yl)-N2-(1-(trifluoromethyl)-cyclopropyl)oxalamide] yielded an EC50 of under 0.05 µM. With `Cc1ccccc1N(C)C(=O)C(=O)N[C@@H](CC(C)C)C(=O)N[C@@H](C[C@@H]1CCNC1=O)C(=O)COc1c(F)c(F)cc(F)c1F` [Compound 107, N1-methyl-N2-((S)-4-methyl-1-oxo-1-(((S)-3-oxo-1-((S)-2-oxopyrrolidin-3-yl)-4-(2,3,5,6-tetrafluorophenoxy)butan-2-yl)amino)pentan-2-yl)-N1-(o-tolyl)oxalamide] the EC50 was 0.2 to 0.5 µM. With `CC(C)C[C@H](NC(=O)C(=O)Nc1ccccc1F)C(=O)N[C@@H](C[C@@H]1CCNC1=O)C(=O)COc1cc(C(F)(F)F)on1` [Compound 141, N1-(2-fluorophenyl)-N2-((S)-4-methyl-1-oxo-1-(((S)-3-oxo-1-((S)-2-oxopyrrolidin-3-yl)-4-((5-(trifluoromethyl)isoxazol-3-yl)oxy)butan-2-yl)amino)pentan-2-yl)oxalamide] the EC50 was 0.5 to 1 µM. In the case of `O=C(Nc1ccccc1F)C(=O)N[C@@H](CC1CCCC1(F)F)C(=O)N[C@@H](C[C@@H]1CCNC1=O)C(=O)COC(F)(F)F` (stereo partly drawn) [Compound 227, N1-((2S)-3-(2,2-difluoro-cyclopentyl)-1-oxo-1-(((S)-3-oxo-1-((S)-2-oxopyrrolidin-3-yl)-4-(trifluoromethoxy)butan-2-yl)amino)propan-2-yl)-N2-(2-fluorophenyl)-oxalamide], the EC50 is reported as under 0.05 µM. Compound `COc1ccc(NC(=O)C(=O)N[C@@H](CC(C)C)C(=O)N[C@@H](C[C@@H]2CCNC2=O)C(=O)COc2c(F)c(F)cc(F)c2F)cc1` [Compound 121, N1-(4-methoxyphenyl)-N2-((S)-4-methyl-1-oxo-1-(((S)-3-oxo-1-((S)-2-oxopyrrolidin-3-yl)-4-(2,3,5,6-tetrafluorophenoxy)butan-2-yl)amino)pentan-2-yl)oxalamide] has an EC50 of under 0.05 µM.

Same assay, conditions: Severe acute respiratory syndrome coronavirus 2, HeLa-ACE2, 24 h, HeLa-ACE2 cells, SARS-CoV-2 infection, 24 h; given as bound; read-out: EC50, uM (Hela)
In the case of `CC(C)(C)NC(=O)C(=O)N1CC2(COC2)C[C@H]1C(=O)N[C@@H](C[C@@H]1CCNC1=O)C(=O)COC(F)(F)F` [Compound 515, (S)-6-(2-(tert-butylamino)-2-oxoacetyl)-N-((S)-3-oxo-1-((S)-2-oxopyrrolidin-3-yl)-4-(trifluoromethoxy)butan-2-yl)-2-oxa-6-azaspiro[3.4]octane-7-carboxamide], the EC50 is reported as over 1 µM. `C[C@@H]1C[C@H]2[C@H](C[C@H](C(=O)N[C@@H](C[C@@H]3CCNC3=O)C(=O)COC(F)(F)F)N2C(=O)C(=O)NC(C)(C)C)O1` [Compound 547, (2R,3aS,5R,6aS)-4-(2-(tert-butylamino)-2-oxoacetyl)-2-methyl-N-((S)-3-oxo-1-((S)-2-oxopyrrolidin-3-yl)-4-(trifluoromethoxy)butan-2-yl)hexahydro-2H-furo[3,2-b]pyrrole-5-carboxamide] was tested, and the EC50 was over 1 µM.

Same assay, conditions: Severe acute respiratory syndrome coronavirus 2, HeLa-ACE2, 24 h, HeLa-ACE2 cells, SARS-CoV-2 infection, 24 h; read-out: EC50, uM (Hela)
Work on `CC(C)(C)CCC(=O)N1CC2(CC2)C[C@H]1C(=O)N[C@@H](C[C@@H]1CCNC1=O)C(=O)COC(F)(F)F` [Compound 459, (S)-5-(4,4-dimethylpentanoyl)-N-((S)-3-oxo-1-((S)-2-oxopyrrolidin-3-yl)-4-(trifluoromethoxy)butan-2-yl)-5-azaspiro[2.4]heptane-6-carboxamide] yielded an EC50 of under 0.05 µM. Work on `O=C1NCC[C@H]1C[C@H](NC(=O)[C@@H]1CC2(CC2)CN1C(=O)c1ccc(Cl)cc1F)C(=O)COC(F)(F)F` [Compound 702, (S)-5-(4-chloro-2-fluorobenzoyl)-N-((S)-3-oxo-1-((S)-2-oxopyrrolidin-3-yl)-4-(trifluoromethoxy)butan-2-yl)-5-azaspiro[2.4]heptane-6-carboxamide] yielded an EC50 of 0.05 to 0.2 µM. Work on `O=C(Nc1ccccc1F)C(=O)N1CC2(C[C@H]1C(=O)N[C@@H](C[C@@H]1CCNC1=O)C(=O)COC(F)(F)F)CC2(F)F` (stereo partly drawn) [Compound 482, (6S)-1,1-difluoro-5-(2-((2-fluorophenyl)amino)-2-oxoacetyl)-N-((S)-3-oxo-1-((S)-2-oxopyrrolidin-3-yl)-4-(trifluoromethoxy)butan-2-yl)-5-azaspiro[2.4]heptane-6-carboxamide] yielded an EC50 of 0.05 to 0.2 µM. `O=C1NCC[C@H]1C[C@H](NC(=O)[C@@H]1CC2(CC2)CN1C(=O)c1ccc(F)cc1F)C(=O)COC(F)(F)F` [Compound 710, (S)-5-(2,4-difluorobenzoyl)-N-((S)-3-oxo-l-((S)-2-oxopyrrolidin-3-yl)-4-(trifluoromethoxy)butan-2-yl)-5-azaspiro[2.4]heptane-6-carboxamide] was tested, and the EC50 was 0.2 to 0.5 µM. For `CC(C)C[C@@H](O)C(=O)N1CC2(CC2)C[C@H]1C(=O)N[C@@H](C[C@@H]1CCCNC1=O)C(=O)COc1c(F)c(F)c(F)c(F)c1F` [Compound 779, (S)-5-((R)-2-hydroxy-4-methylpentanoyl)-N-((S)-3-oxo-1-((S)-2-oxopiperidin-3-yl)-4-(perfluorophenoxy)butan-2-yl)-5-azaspiro[2.4]heptane-6-carboxamide], the EC50 was under 0.05 µM. `O=C1NCC[C@H]1C[C@H](NC(=O)[C@@H]1CC2(CC2)CN1C(=O)[C@@H]1CCCO1)C(=O)COC(F)(F)F` [Compound 679, (S)-N-((S)-3-oxo-1-((S)-2-oxopyrrolidin-3-yl)-4-(trifluoromethoxy)butan-2-yl)-5-((S)-tetrahydrofuran-2-carbonyl)-5-azaspiro[2.4]heptane-6-carboxamide] gave an EC50 of 0.2 to 0.5 µM. `O=C(N[C@H]1[C@@H]2COC[C@@H]21)C(=O)N1C[C@@H]2CCC[C@@H]2[C@H]1C(=O)N[C@@H](C[C@@H]1CCNC1=O)C(=O)COC(F)(F)F` [Compound 548, (1S,3aR,6aS)-2-(2-(((1R,5S,6r)-3-oxabicyclo[3.1.0]-hexan-6-yl)amino)-2-oxoacetyl)-N-((S)-3-oxo-1-((S)-2-oxopyrrolidin-3-yl)-4-(trifluoromethoxy)butan-2-yl)octahydrocyclo-penta[c]pyrrole-1-carboxamide] gave an EC50 of 0.2 to 0.5 µM. Compound `CC1(C[C@H](NC(=O)C(=O)NC23CC(F)(C2)C3)C(=O)N[C@@H](C[C@@H]2CCNC2=O)C(=O)COC(F)(F)F)CC1` [Compound 582, N1-(3-fluorobicyclo-[1.1.1]pentan-1-yl)-N2-((S)-3-(l-methyl-cyclopropyl)-1-oxo-1-(((S)-3-oxo-1-((S)-2-oxopyrrolidin-3-yl)-4-(trifluoromethoxy)butan-2-yl)amino)propan-2-yl)oxalamide] has an EC50 of under 0.05 µM. For `O=C1NCC[C@H]1C[C@H](NC(=O)[C@@H]1CC2(CC2)CN1C(=O)c1ccccc1C(F)(F)F)C(=O)COC(F)(F)F` [Compound 686, (S)-N-((S)-3-oxo-1-((S)-2-oxopyrrolidin-3-yl)-4-(trifluoromethoxy)butan-2-yl)-5-(2-(trifluoromethyl)benzoyl)-5-azaspiro[2.4]heptane-6-carboxamide], the EC50 was under 0.05 µM. Work on `O=C1NCC[C@H]1C[C@H](NC(=O)[C@@H]1CC2(CC2)CN1C(=O)C12CC(F)(C1)C2)C(=O)COC(F)(F)F` [Compound 627, (S)-5-(3-fluorobicyclo[1.1.1]pentane-1-carbonyl)-N-((S)-3-oxo-1-((S)-2-oxopyrrolidin-3-yl)-4-(trifluoromethoxy)butan-2-yl)-5-azaspiro[2.4]heptane-6-carboxamide] yielded an EC50 of 0.05 to 0.2 µM.

Same assay, conditions: Severe acute respiratory syndrome coronavirus 2, HeLa-ACE2, 24 h; read-out: EC50, uM (Hela)
Compound `CC(C)C[C@H](NC(=O)C(=O)Nc1ccccc1F)C(=O)N[C@@H](CCCCN)C(=O)COc1c(F)c(F)cc(F)c1F` [Compound 142, N^1—((S)-1-(((S)-7-amino-2-oxo-1-(2,3,5,6-tetrafluorophenoxy)heptan-3-yl)amino)-4-methyl-1-oxopentan-2-yl)-N^2-(2-fluorophenyl)oxalamide hydrochloride] has an EC50 of under 0.05 µM. With `COc1cccc2[nH]c(C(=O)N[C@@H](CC(C)C)C(=O)N[C@@H](CC3CCNC3=O)C(=O)COP(=O)(c3ccccc3)c3ccccc3)cc12` (stereo partly drawn) [Compound 195, (3S)-3-((S)-2-(4-methoxy-1H-indole-2-carboxamido)-4-methylpentanamido)-2-oxo-4-(2-oxopyrrolidin-3-yl)butyl diphenylphosphinate] the EC50 was 0.05 to 0.2 µM. `O=C1NCC[C@H]1C[C@H](NC(=O)[C@@H]1CC2(CC2)CN1C(=O)C(F)(F)F)C(=O)COC(F)(F)F` [Compound 703, (S)-N-((S)-3-oxo-1-((S)-2-oxopyrrolidin-3-yl)-4-(trifluoromethoxy)butan-2-yl)-5-(2,2,2-trifluoroacetyl)-5-azaspiro[2.4]heptane-6-carboxamide] showed an EC50 of 0.2 to 0.5 µM.
